We go through 27 compounds from ChEMBL document CHEMBL4483862, “Open-source discovery of chemical leads for next-generation chemoprotective antimalarials” (2018).

pIC50: −log10 of the molar value.

This test relates to Plasmodium berghei. Put plainly: Luciferase/luciferin-expressing antifolate-resistant parasites were used to infect a culture of HepG2 cells that were pre-incubated with compounds. Infected hepatocytes emit light due to the luciferase reaction. Assay results are presented as the percent inhibition of light emission compared to control. […]. Format: functional. As to conditions: sporozoite; for IC90: read-out: LUCIFERASE INFECTION ASSAY - IC90.

[1] abbreviates: read-out: LUCIFERASE INFECTION ASSAY - IC50.

The pIC50 is the IC50 on a negative log10 scale, so that one unit is a factor of ten. As usually defined, the IC90 is the point of the concentration-response curve where the effect stands at 90%. In the case of `Nc1ncc(-c2ccc(-c3ccccc3)cc2F)cc1-c1ccccc1F`, the 90% effect concentration (IC90) was > 9.21 µM. Besides, the pIC50 (PBLUC_HILL_SLOPE 34.9, PBLUC_R_SQUARED 0.254, read-out: LUCIFERASE INFECTION ASSAY - IC50) was 5.05.

With `OCc1ccc(-c2cnc3ccc(-c4cccc(C(F)(F)F)c4)nn23)cc1`, the IC90 was > 10 µM. Also, under setting [1], the negative logarithm of the IC50 (pIC50) was < 5.00.

On to `CCOC(=O)c1c(NC(=O)C[n+]2ccc(Cc3ccccc3)cc2)sc(C)c1C`, for which the concentration for an effect of 90% (IC90) came out at 8.6 µM. In addition, the pIC50 under setting [1] was 5.42.

In the case of `CC1Cc2cc(C3=NNC(=Nc4ccccc4[N+](=O)[O-])SC3)ccc2N1S(C)(=O)=O` (centres undefined), the 90% effect concentration (IC90) was > 10 µM. In addition, under setting [1], the pIC50 was 5.27.

As for `Cc1ccccc1-n1nnc(C(=O)Nc2cccc(Br)c2)c1N`, the IC90 stood at 4.24 µM. The pIC50 (PBLUC_HILL_SLOPE 0.945, PBLUC_R_SQUARED 0.824, read-out: LUCIFERASE INFECTION ASSAY - IC50) is 6.38.

Regarding `Cc1cccc(N2CCN(c3cc(C)nc4c(-c5ccccc5)c(C)nn34)CC2)n1`, the IC90 was > 8.28 µM. Besides, the pIC50 under setting [1] is < 5.08.

Turning to `COc1ccc(OCCSCc2cc(=O)n3c4c(sc3n2)CCCC4)cc1`, the concentration for an effect of 90% (IC90) is > 10 µM. The pIC50 under setting [1] is < 5.00.

In the case of `c1coc(CC2CCCC2Nc2c3ccccc3nc3ccccc23)c1` (centres undefined), the IC90 turned out to be 1.22 µM. Where the note is “PBLUC_HILL_SLOPE 13.4, PBLUC_R_SQUARED 0.585, read-out: LUCIFERASE INFECTION ASSAY - IC50”, the negative logarithm of the IC50 (pIC50) is 5.98.

With `Cc1nn2c(SCC(=O)O)cc(C(C)(C)C)nc2c1-c1ccc(Cl)cc1`, the 90% effect concentration (IC90) is > 8.46 µM. Further, the pIC50 under setting [1] was < 5.07.

For `CCOc1ccc(-c2nnc(SCc3csc(Nc4ccc(C)cc4)n3)n2-c2ccccc2F)cc1`, the IC90 was > 10 µM. Also, the pIC50 (HEPG2TOX_HILL_SLOPE 1.93, HEPG2TOX_R_SQUARED 0.706, PBLUC_HILL_SLOPE 2.19, PBLUC_R_SQUARED 0.586, read-out: LUCIFERASE INFECTION ASSAY - IC50) was 5.28.

With `COCCNc1ccc(C(=O)NCCN2CCN(c3cccc(C)c3)CC2)cc1[N+](=O)[O-]`, the 90% effect concentration (IC90) is > 10 µM. Under “PBLUC_HILL_SLOPE 2.05, PBLUC_R_SQUARED 0.556, read-out: LUCIFERASE INFECTION ASSAY - IC50”, the negative-log IC50 (pIC50) is 5.20.

As to `NCc1cccc(-c2cc(-c3cc(C(F)(F)F)cc(C(F)(F)F)c3)cnc2N)c1`, the 90% effect concentration (IC90) is > 8.02 µM. Moreover, the pIC50 (FFLUC_HILL_SLOPE 0.255, FFLUC_R_SQUARED 0.011, PBLUC_HILL_SLOPE 2.95, PBLUC_R_SQUARED 0.223, read-out: LUCIFERASE INFECTION ASSAY - IC50) was 5.10.

For `Cc1ccc(-c2cc(=O)n(-c3nc4ccccc4[nH]3)[nH]2)cc1`, the IC90 is > 11.4 µM. The negative logarithm of the IC50 (pIC50) under setting [1] was < 4.94.

Regarding `COc1cccc(C(=O)CC2C(=O)Nc3ccccc32)c1` (centres undefined), the 90% effect concentration (IC90) came to 11.4 µM. Moreover, the pIC50 (HEPG2TOX_HILL_SLOPE 18.2, HEPG2TOX_R_SQUARED 0.892, PBLUC_HILL_SLOPE 11.5, PBLUC_R_SQUARED 0.65, read-out: LUCIFERASE INFECTION ASSAY - IC50) is 5.03.

On to `CCOC(=O)N1CCC(N/C=C(\C#N)S(=O)(=O)c2ccc(Cl)cc2)CC1`, for which the concentration for an effect of 90% (IC90) worked out at 3.29 µM. Moreover, the pIC50 (PBLUC_HILL_SLOPE 8.69, PBLUC_R_SQUARED 0.709, read-out: LUCIFERASE INFECTION ASSAY - IC50) is 5.59.

As for `NC1=CC(=O)c2ccccc2C1=O`, the IC90 was > 19.1 µM. Also, the negative-log IC50 (pIC50) (PBLUC_HILL_SLOPE 2.49, PBLUC_R_SQUARED 0.187, read-out: LUCIFERASE INFECTION ASSAY - IC50) was 4.92.

As to `CC(C)(C)NC(=O)c1csc(C(O)c2cccc(C(F)(F)F)c2)n1` (centres undefined), the IC90 is > 10 µM. Moreover, for the setting “HEPG2TOX_HILL_SLOPE 14.6, HEPG2TOX_R_SQUARED 0.662, PBLUC_HILL_SLOPE 2.89, PBLUC_R_SQUARED 0.602, read-out: LUCIFERASE INFECTION ASSAY - IC50”, the pIC50 is 5.31.

Turning to `O=C(NC1CC1)c1ccc(CN(C2CC2)S(=O)(=O)c2ccc3c(c2)OCCCO3)cc1`, the IC90 was 5.38 µM. For the same compound, the negative-log IC50 (pIC50) (PBLUC_HILL_SLOPE 2.85, PBLUC_R_SQUARED 0.458, read-out: LUCIFERASE INFECTION ASSAY - IC50) is 5.60.

As to `CC(=O)N1CCC(C(=O)Nc2cc(C(F)(F)F)ccc2NC2CCCCC2)CC1`, the IC90 was > 10 µM. Also, the pIC50 under setting [1] was < 5.00.

`Cc1c(C(=O)Nc2ccccc2O)cnn1-c1cccc(C(F)(F)F)c1`: the 90% effect concentration (IC90) was 3.64 µM. Further, the negative-log IC50 (pIC50) (PBLUC_HILL_SLOPE 22.3, PBLUC_R_SQUARED 0.482, read-out: LUCIFERASE INFECTION ASSAY - IC50) is 5.48.

With `O=C1N(Cc2ccccc2)c2ccccc2C12Oc1ccc(Br)cc1-c1cc(-c3ccccc3)nn12` (centres undefined), the IC90 is > 10 µM. In addition, the pIC50 under setting [1] is 5.03.

For `O=C(/C=C/c1ccccc1)N1CCN(S(=O)(=O)c2ccccc2C(F)(F)F)CC1`, the IC90 came to 6.57 µM. In addition, the negative-log IC50 (pIC50) (HEPG2TOX_HILL_SLOPE 0.114, HEPG2TOX_R_SQUARED 0.819, PBLUC_HILL_SLOPE 7.50, 16.5, PBLUC_R_SQUARED 0.237, 0.462, read-out: LUCIFERASE INFECTION ASSAY - IC50) was 5.26.

With `COc1cccc(Nc2nc(-c3ccc(CCC(C)NC(C)=O)cc3)cs2)c1` (centres undefined), the IC90 stood at 8.54 µM. Also, the pIC50 (HEPG2TOX_HILL_SLOPE 17.1, HEPG2TOX_R_SQUARED 0.93, PBLUC_HILL_SLOPE 0.895, PBLUC_R_SQUARED 0.745, read-out: LUCIFERASE INFECTION ASSAY - IC50) is 6.13.

For the compound `Cc1ccc(S(=O)(=O)/N=C2\C=C3N(CCO)CCOC3(O)c3ccccc32)c(C)c1` (centres undefined), the 90% effect concentration (IC90) was 6.56 µM. Besides, the negative-log IC50 (pIC50) (FFLUC_HILL_SLOPE 0.405, FFLUC_R_SQUARED 0.0273, HEPG2TOX_HILL_SLOPE 10.4, HEPG2TOX_R_SQUARED 0.538, PBLUC_HILL_SLOPE 3.34, PBLUC_R_SQUARED 0.51, read-out: LUCIFERASE INFECTION ASSAY - IC50) was 5.47.

For the compound `CCN(CC)C(=O)c1sc2nc(-c3ccccn3)nc(O)c2c1C`, the 90% effect concentration (IC90) is > 10 µM. The pIC50 under setting [1] was < 5.00.

Turning to `C=CCc1cc(C(=O)Nc2ccc3oc(C)nc3c2)cc(OC)c1OC`, the concentration for an effect of 90% (IC90) was > 10 µM. Also, under setting [1], the pIC50 is 5.37.

In the case of `Cc1sc2nc(-c3cccs3)nc(N3CCN(C(=O)c4ccccc4)CC3)c2c1C`, the IC90 is > 10 µM. Moreover, the pIC50 (PBLUC_HILL_SLOPE 1.78, PBLUC_R_SQUARED 0.529, read-out: LUCIFERASE INFECTION ASSAY - IC50) is 5.31.
